US9012497B2, “Cyclohexyl carbamate compounds as active anti-cellulite ingredients” (Symrise AG, priority 2010, dated 2015)

What was measured:
3T3-L1 cells [1] = assay: Lipolysis assay, in vitro on 3T3-L1 cells, free glycerol release; format: cell-based; details: Mus musculus; differentiated 3T3-L1 cells, about 20 hours of incubation; mean values from at least 2 independent tests; read-out: Stimulation of lipolysis EC50
Protocol: 3T3-L1 cells (mouse embryonic fibroblast-like adipocyte cell line) are seeded in a 48-well plate with collagen I-coating in a concentration of 3×10^4 cells/well. The cultivation and differentiation of the cells takes place analogously to the details in Example 2 (adipogenesis assay).
Various concentrations of the test substances are applied to the cells in DMEM, with bovine serum albumen added. After about 20 hours of incubation, the quantification of free glycerol in the supernatant of the cells takes place, which is released by the cells after hydrolysis of triglycerides in the cells and is a measure of the lipolysis of the cells. The quantification of the free glycerol is carried out based on an enzymatic method with a free glycerol reagent.
The stimulation of the lipolysis in the presence of test substances is calculated according to the following equation:
[formula] wherein A test substance=absorption of the wells with test substance and with cells A test substance without cells=absorption of the wells with test substance without cells (absorption control) A control=absorption of the wells without test substance, but with cells A control without cells=absorption of the wells without test substance and without cells
The EC50 is calculated from the lipolysis stimulation [%] in a series of dilutions of tested samples. This is the concentration at which the lipolysis is 50% stimulated.

pancreatic lipase (PL) = biological target: T1, pancreatic lipase (PL) (Sus scrofa, UniProt P00591); assay: Inhibition of PL, MUF oleate hydrolysis; format: biochemical; details: mean values of at least 2 independent tests
T1 construct: purchased Sigma-Aldrich
T1 sequence (P00591 1-450): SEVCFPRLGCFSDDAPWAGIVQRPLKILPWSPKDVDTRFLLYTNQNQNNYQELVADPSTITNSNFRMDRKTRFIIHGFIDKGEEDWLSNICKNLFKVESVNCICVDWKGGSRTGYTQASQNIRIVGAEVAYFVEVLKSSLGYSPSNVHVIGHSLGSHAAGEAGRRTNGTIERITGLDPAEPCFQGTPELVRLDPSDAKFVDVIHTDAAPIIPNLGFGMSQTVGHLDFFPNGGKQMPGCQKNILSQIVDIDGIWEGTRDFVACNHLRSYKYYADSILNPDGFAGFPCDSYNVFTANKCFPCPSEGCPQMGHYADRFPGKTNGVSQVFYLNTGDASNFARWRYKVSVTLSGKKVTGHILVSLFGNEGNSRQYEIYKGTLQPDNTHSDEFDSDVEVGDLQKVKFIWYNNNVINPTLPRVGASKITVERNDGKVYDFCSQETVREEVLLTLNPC
Text: (§1) Lipogenesis is perceived as the storage of triglycerides in adipocytes. The inhibition of this storage can take place by means of the inhibition of the activity of extracellular lipoprotein lipase (LPL) in that the hydrolysis of extracellular triglycerides and therefore the absorption of free fatty acids by adipocytes are reduced. As a preliminary test, the inhibition of pancreatic lipase (PL) is investigated.
PL (Sigma-Aldrich), in the presence of test substances in different use concentrations has methylumbelliferyl oleate (MUF oleate) added as a substrate. Fluorescent methylumelliferon (MUF), is produced by hydrolysis of the MUF oleate by PL and is quantified. The inhibition of the hydrolysis of the MUF oleate is a measure of the inhibition of activity of the PL.
[formula] wherein MUF test substance=MUF concentration of the wells with test substance and with PL MUF control=MUF concentration of the wells without test substance, but with PL MUF control without PL=MUF concentration of the wells without test substance and without PL
The IC50 is calculated from the inhibition of the PL [%] in a series of dilutions of tested samples. This is the concentration, at which the activity of the PL is 50% inhibited.

3T3-L1 cells [2] = assay: Adipogenesis assay (in vitro), Nile Red lipid staining; format: cell-based; details: Mus musculus, mean values of at least 2 independent tests, read-out: Adipogenesis inhibition IC50
Protocol: 3T3-L1 cells (mouse embryonic fibroblast-like adipocyte cell line) are seeded in a 48-well plate with collagen I-coating in a concentration of 3×10^4 cells/well. After 72 h cultivation at 37° C. and 5% CO2 in DMEM (Dulbecco's Modified Eagle Medium), enriched with 10% calf serum, various concentrations of the test substances in DMEM, enriched with 10% foetal calf serum and to which are added 1 μg/ml insulin, 0.25 μM dexamethasone and 0.5 mM IBMX (3-isobutyl-1-methylxanthine), are added and incubated for a further 48 h. A media change takes place, in that DMEM, enriched with 10% foetal calf serum and with 1 μg/ml insulin added, are applied. After renewed cultivation for 48 h, a further media change takes place, in which DMEM, enriched with 10% foetal calf serum, is applied.
After a further incubation for 72 h, the intracellularly stored lipids are quantified as a measure for the differentiation of the cells by measuring the fluorescence after staining of the lipids with the fluorescent dye Nile Red.
The inhibition of the adipogenesis in the presence of the test substances is calculated according to the following equation:
[formula] wherein RFU test substance=relative fluorescent units of the wells with test substance and with cells RFU control=relative fluorescent units of the wells without test substance, but with cells RFU control without cells=relative fluorescent units of the wells without test substance and without cells The IC50 is calculated from the adipogenesis inhibition [%] in a series of dilutions of tested samples. This is the concentration at which the adipogenesis is 50% inhibited.

lipoprotein lipase (LPL) = biological target: T2, lipoprotein lipase (LPL) (Mus musculus, UniProt P11152); assay: Inhibition of LPL (lipogenesis assay), MUF oleate hydrolysis; format: biochemical; details: LPL obtained from differentiated 3T3-L1 cells; mean values of at least 2 independent tests
T2 construct: endogenous in cells; host or cells: differentiated 3T3-L1 cells (mouse); heparin-released supernatant
T2 sequence (P11152 28-474): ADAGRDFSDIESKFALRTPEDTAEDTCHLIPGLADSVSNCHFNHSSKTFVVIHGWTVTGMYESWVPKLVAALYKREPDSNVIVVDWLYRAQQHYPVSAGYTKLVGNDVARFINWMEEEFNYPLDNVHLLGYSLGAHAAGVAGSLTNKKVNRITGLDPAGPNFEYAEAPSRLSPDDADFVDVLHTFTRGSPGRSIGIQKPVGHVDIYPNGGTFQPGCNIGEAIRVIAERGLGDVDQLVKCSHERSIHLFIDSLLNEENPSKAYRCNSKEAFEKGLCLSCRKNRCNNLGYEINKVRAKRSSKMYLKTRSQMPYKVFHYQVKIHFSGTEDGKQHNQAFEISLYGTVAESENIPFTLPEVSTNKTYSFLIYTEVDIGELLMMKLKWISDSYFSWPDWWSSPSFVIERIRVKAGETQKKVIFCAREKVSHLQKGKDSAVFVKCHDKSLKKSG
Text: as §1
The results of the inhibition of the PL are used as a preliminary test and are confirmed on LPL. To obtain LPL, 3T3-L1 cells (mouse embryonic fibroblast-like adipocyte cell line) are seeded in a 6-well plate with collagen I-coating in a concentration of 3×10^5 cells/well. The cultivation and differentiation of the cells takes place analogously to the details in Example 2 (adipogenesis assay). During the differentiation LPL is increasingly expressed. The LPL is present in a membrane-bound state and is released by one hour incubation with heparin solution at 2-8° C. to the supernatant of the cells.
The LPL thus obtained, in the presence of test substances in different use concentrations, has methylumbelliferyl oleate (MUF oleate) added as the substrate. Fluorescent methylumbelliferyl (MUF) is produced by hydrolysis of the MUF oleate by LPL and is quantified. The inhibition of the hydrolysis of the MUF oleate is a measure of the inhibition of the activity of the LPL and therefore the lipogenesis.
[formula] wherein MUF test substance=MUF concentration of the wells with test substance and with LPL MUF control=MUF concentration of the wells without test substance, but with LPL MUF control without LPL=MUF concentration of the wells without test substance and without LPL
The IC50 is calculated from the inhibition of the LPL [%] in a series of dilutions of tested samples. This is the concentration at which the activity of the LPL and therefore the lipogenesis is 50% inhibited.

| IC50 (pancreatic lipase (PL)) | IC50 (lipoprotein lipase (LPL)) | Structure (SMILES) | EC50 (3T3-L1 cells [1]) | IC50 (3T3-L1 cells [2]) |
| --- | --- | --- | --- | --- |
| 1240 µM | – | CCCCCCNC(=O)OC1CCCCC1C(C)C (stereo not shown) [BIO1851, Hexyl-carbamic acid 2-isopropyl-cyclohexyl ester] | 1170 µM | 86 µM |
| 550 µM | – | CCCCNC(=O)OC1CC(C)CC(C)C1 (stereo not shown) [BIO1840, Butyl-carbamic acid 3,5-dimethyl-cyclohexyl ester] | 700 µM | 160 µM |
| 510 µM | – | CCCCNC(=O)OC1CCCC(C)C1 (stereo not shown) [BIO1821, Butyl-carbamic acid 3-methyl-cyclohexyl ester] | – | – |
| 670 µM | – | CCCCNC(=O)OC1CCCC(C)C1C (stereo not shown) [BIO1842, Butyl-carbamic acid 2,3-dimethyl-cyclohexyl ester] | 230 µM | 150 µM |
| 230 µM | – | COc1ccccc1NC(=O)OC1CCCCC1C(C)C (stereo not shown) [BIO1744, (2-Methoxy-phenyl)-carbamic acid 2-isopropyl-cyclohexyl ester] | – | – |
| 240 µM | – | CCNC(=O)OC1CCCC(C)C1C (stereo not shown) [BIO1581, Ethyl-carbamic acid 2,3-dimethyl-cyclohexyl ester] | – | 160 µM |
| 400 µM | – | CCNC(=O)OC1CC(C)CC(C)C1 (mixture of isomers) [BIO1561, Ethyl-carbamic acid 3,5-dimethyl-cyclohexyl ester] | – | – |
| 420 µM | – | CCNC(=O)OC1CCC(C)C(C)C1 (stereo not shown) [BIO1582, Ethyl-carbamic acid 3,4-dimethyl-cyclohexyl ester] | – | – |
| 130 µM | – | CC1CC(C)CC(OC(=O)NCc2ccccc2)C1 (stereo not shown) [BIO1745, Benzyl-carbamic acid 3,5-dimethyl-cyclohexyl ester] | – | 120 µM |
| 420 µM | – | CC1CCCC(OC(=O)Nc2ccccc2O)C1C (stereo not shown) [BIO1643, (2-Hydroxy-phenyl)-carbamic acid 2,3-dimethyl-cyclohexyl ester] | – | 14 µM |

Second part, the compound before the results:

| Structure (SMILES) | IC50 (pancreatic lipase (PL)) | IC50 (lipoprotein lipase (LPL)) | EC50 (3T3-L1 cells [1]) | IC50 (3T3-L1 cells [2]) |
| --- | --- | --- | --- | --- |
| CC1CC(C)CC(OC(=O)Nc2ccccc2)C1 (stereo not shown) [BIO1685, Phenyl-carbamic acid 3,5-dimethyl-cyclohexyl ester] | – | – | 600 µM | 340 µM |
| Cc1ccc(NC(=O)OC2CC(C)CC(C)C2)cc1 (stereo not shown) [BIO1822, p-Tolyl-carbamic acid 3,5-dimethyl-cyclohexyl ester] | – | – | – | 170 µM |
| CC1CC(C)CC(OC(=O)NC2CCCCC2)C1 (stereo not shown) [BIO1743, Cyclohexyl-carbamic acid 3,5-dimethyl-cyclohexyl ester] | – | – | 1890 µM | 91 µM |
| O=C(Nc1ccccc1)OC1CCCCC1 [BIO1741, Phenyl-carbamic acid cyclohexyl ester] | – | – | 360 µM | 440 µM |
| C=C(C)C1CCC(C)CC1OC(=O)NCCCC (stereo not shown) [BIO1615, Butyl-carbamic acid 2-isopropenyl-5-methyl-cyclohexyl ester] | 340 µM | 870 µM | 820 µM | 160 µM |
| COc1ccccc1NC(=O)OC1CC(C)CC(C)(C)C1 (stereo not shown) [BIO1703, (2-Methoxy-phenyl)-carbamic acid 3,3,5-trimethyl-cyclohexyl ester] | 1860 µM | – | – | 51 µM |
| CC(C)C1CCCCC1OC(=O)NCc1ccccc1 (stereo not shown) [BIO1748, Benzyl-carbamic acid 2-isopropyl-cyclohexyl ester] | 2170 µM | – | 810 µM | 59 µM |
| CCCCCCNC(=O)OC1CC(C)CC(C)(C)C1 (stereo not shown) [BIO1850, Hexyl-carbamic acid 3,3,5-trimethyl-cyclohexyl ester] | 520 µM | 680 µM | – | 360 µM |
| Cc1ccc(NC(=O)OC2CCCCC2C(C)C)cc1 (stereo not shown) [BIO1824, p-Tolyl-carbamic acid 2-isopropyl-cyclohexyl ester] | – | – | 510 µM | 92 µM |
| CCNC(=O)OC1CCC(C(C)C)C(C)C1 (stereo not shown) [BIO1560, Ethyl-carbamic acid 4-isopropyl-3-methyl-cyclohexyl ester] | 560 µM | – | – | – |
| CCNC(=O)OC1CC2CCC1(C)C2(C)C (stereo not shown) [BIO1573, Ethyl-carbamic acid 1,7,7-trimethyl-bicyclo[2.2.1]hept-2-yl ester] | – | – | 350 µM | – |
| CC(C)(C)C1CCC(OC(=O)NC2CCCCC2)CC1 (stereo not shown) [BIO1747, Cyclohexyl-carbamic acid 4-tert-butyl-cyclohexyl ester] | – | – | 610 µM | 120 µM |
| COc1ccccc1NC(=O)OC1C(C)CCC(C)C1C (stereo not shown) [BIO1701, (2-Methoxy-phenyl)-carbamic acid 2,3,6-trimethyl-cyclohexyl ester] | 470 µM | – | – | 110 µM |
